Assays:
[1] = test system: RKO colon adenocarcinoma cells (RKOp27) arrested by expression of ectopic p27Kip1; assay: Alamar Blue cell viability assay on RKOp27 cells arrested by Ponasterone A-induced p27Kip1 (cell cycle specific mode of action); assay type: cell-based; details: Homo sapiens, RKOp27, 72 h, cells arrested by p27Kip1 induced with 10 μM Ponasterone A, 72 hours incubation, read-out: IC50 RKO p27 arrested
Summary of the method: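 Viability measured by Alamar Blue fluorescence (ex 544, em 590 nm) after 72 h, 37 °C compound exposure in quadruplicate, normalized to untreated cells as 100%. Cells were p27Kip1-arrested RKOp27, induced with 10 μM Ponasterone A at seeding; compound added 24 h later.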

[2] = test system: RKO (RKOp27) human colon adenocarcinoma cells; assay: Alamar Blue cell viability assay, anti-proliferative/cytotoxic activity on proliferating RKOp27 cells; assay type: cell-based; details: absence of Ponasterone A, 72 hours incubation, read-out: IC50 RKO p27 proliferating
Summary of the method: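 IC50 values come from concentration-effect curves of Alamar Blue fluorescence (544/590 nm), relative to untreated controls set at 100%. Cells were RKOp27, seeded at 4000/well in DMEM with 10% FCS and exposed from 24 h post-seeding for 72 h (37 °C, 5% CO2) to semi-log dilutions, each run in quadruplicate.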

SMILES | IC50 [1] [µM] | IC50 [2] [µM]
N#Cc1c(NC(=O)/C=C/c2ccccc2)sc2c1CCN(C(=O)CCc1cccnc1)C2 [Example 185, (E)-N-[3-Cyano-6-(3-pyridin-3-yl-propanoyl)-4,5,6,7-tetrahydro-thieno[2,3-c]pyridin-2-yl]-3-phenyl-acrylamide] | ≥ 100 | ≤ 2
COC(=O)CCCC(=O)N1CCc2c(sc(NC(=O)/C=C/c3ccccc3)c2C#N)C1 [Example 186, 5-[3-Cyano-2-((E)-3-phenyl-allanoylamino)-4,7-dihydro-5H-thieno[2,3-c]pyridin-6-yl]-5-oxo-pentanoic acid methyl ester] | ≥ 100 | ≤ 2
N#Cc1c(NC(=O)/C=C/c2ccccc2)sc2c1CCN(C(=O)CO)C2 [Example 187, (E)-N-[3-Cyano-6-(2-hydroxy-ethanoyl)-4,5,6,7-tetrahydro-thieno[2,3-c]pyridin-2-yl]-3-phenyl-acrylamide] | ≥ 100 | ≤ 2
N#Cc1c(NC(=O)/C=C/c2ccccc2)sc2c1CCN(C(=O)Cn1ccnc1)C2 [Example 188, (E)-N-[3-Cyano-6-(2-imidazol-1-yl-ethanoyl)-4,5,6,7-tetrahydro-thieno[2,3-c]pyridin-2-yl]-3-phenyl-acrylamide] | ≥ 100 | ≤ 2
CC(=O)OCC(=O)N1CCc2c(sc(NC(=O)/C=C/c3ccccc3)c2C#N)C1 [Example 189, Acetic acid 2-[3-cyano-2-((E)-3-phenyl-allanoylamino)-4,7-dihydro-5H-thieno[2,3-c]pyridin-6-yl]-2-oxo-ethyl ester] | ≥ 100 | ≤ 2
N#Cc1c(NC(=O)/C=C/c2ccccc2)sc2c1CCN(C(=O)CCCn1ccnc1)C2 [Example 190, (E)-N-[3-Cyano-6-(4-imidazol-1-yl-butanoyl)-4,5,6,7-tetrahydro-thieno[2,3-c]pyridin-2-yl]-3-phenyl-acrylamide] | ≥ 100 | ≤ 2
CC(=O)OCCCC(=O)N1CCc2c(sc(NC(=O)/C=C/c3ccccc3)c2C#N)C1 [Example 191, Acetic acid 4-[3-cyano-2-((E)-3-phenyl-allanoylamino)-4,7-dihydro-5H-thieno[2,3-c]pyridin-6-yl]-4-oxo-butyl ester] | ≥ 100 | ≤ 2
N#Cc1c(NC(=O)/C=C/c2ccccc2)sc2c1CCN(C(=O)CCCO)C2 [Example 192, (E)-N-[3-Cyano-6-(4-hydroxy-butanoyl)-4,5,6,7-tetrahydro-thieno[2,3-c]pyridin-2-yl]-3-phenyl-acrylamide] | ≥ 100 | ≤ 2
N#Cc1c(NC(=O)/C=C/c2cccnc2)sc2c1CCN(C(=O)CCc1cccnc1)C2 [Example 193, (E)-N-[3-Cyano-6-(3-pyridin-3-yl-propanoyl)-4,5,6,7-tetrahydro-thieno[2,3-c]pyridin-2-yl]-3-pyridin-3-yl-acrylamide] | ≥ 100 | ≤ 2
COCC(=O)N1CCc2c(sc(NC(=O)/C=C/c3cccnc3)c2C#N)C1 [Example 194, (E)-N-[3-Cyano-6-(2-methoxy-ethanoyl)-4,5,6,7-tetrahydro-thieno[2,3-c]pyridin-2-yl]-3-pyridin-3-yl-acrylamide] | ≥ 100 | ≤ 2
COCCC(=O)N1CCc2c(sc(NC(=O)/C=C/c3cccnc3)c2C#N)C1 [Example 195, (E)-N-[3-Cyano-6-(3-methoxy-propanoyl)-4,5,6,7-tetrahydro-thieno[2,3-c]pyridin-2-yl]-3-pyridin-3-yl-acrylamide] | ≥ 100 | ≤ 2
N#Cc1c(NC(=O)/C=C/c2cccnc2)sc2c1CCN(C(=O)Cc1ccccn1)C2 [Example 196, (E)-N-[3-Cyano-6-(2-pyridin-2-yl-ethanoyl)-4,5,6,7-tetrahydro-thieno[2,3-c]pyridin-2-yl]-3-pyridin-3-yl-acrylamide] | ≥ 100 | ≤ 2
N#Cc1c(NC(=O)/C=C/c2cccnc2)sc2c1CCN(C(=O)CCc1nccs1)C2 [Example 198, (E)-N-[3-Cyano-6-(3-thiazol-2-yl-propanoyl)-4,5,6,7-tetrahydro-thieno[2,3-c]pyridin-2-yl]-3-pyridin-3-yl-acrylamide] | ≥ 100 | ≤ 2
COCCOCC(=O)N1CCc2c(sc(NC(=O)/C=C/c3cccnc3)c2C#N)C1 [Example 200, (E)-N-{3-Cyano-6-[2-(2-methoxy-ethoxy)-ethanoyl]-4,5,6,7-tetrahydro-thieno[2,3-c]pyridin-2-yl}-3-pyridin-3-yl-acrylamide] | ≥ 100 | ≤ 2
N#Cc1c(NC(=O)/C=C/c2cccnc2)sc2c1CCN(C(=O)Cc1cccnc1)C2 [Example 205, (E)-N-[3-Cyano-6-(2-pyridin-3-yl-ethanoyl)-4,5,6,7-tetrahydro-thieno[2,3-c]pyridin-2-yl]-3-pyridin-3-yl-acrylamide] | ≥ 100 | ≤ 2
COc1ccccc1/C=C/C(=O)Nc1sc2c(c1C#N)CCN(C(=O)CCc1cccnc1)C2 [Example 206, (E)-N-[3-Cyano-6-(3-pyridin-3-yl-propanoyl)-4,5,6,7-tetrahydro-thieno[2,3-c]pyridin-2-yl]-3-(2-methoxy-phenyl)-acrylamide] | ≥ 100 | ≤ 2
COCCOCC(=O)N1CCc2c(sc(NC(=O)/C=C/c3ccccc3OC)c2C#N)C1 [Example 209, (E)-N-{3-Cyano-6-[2-(2-methoxy-ethoxy)-ethanoyl]-4,5,6,7-tetrahydro-thieno[2,3-c]pyridin-2-yl}-3-(2-methoxy-phenyl)-acrylamide] | ≥ 100 | ≤ 2
COCC(=O)N1CCc2c(sc(NC(=O)/C=C/c3ccccc3OC)c2C#N)C1 [Example 210, (E)-N-[3-Cyano-6-(2-methoxy-ethanoyl)-4,5,6,7-tetrahydro-thieno[2,3-c]pyridin-2-yl]-3-(2-methoxy-phenyl)-acrylamide] | ≥ 100 | ≤ 2
COCCC(=O)N1CCc2c(sc(NC(=O)/C=C/c3ccccc3OC)c2C#N)C1 [Example 211, (E)-N-[3-Cyano-6-(3-methoxy-propanoyl)-4,5,6,7-tetrahydro-thieno[2,3-c]pyridin-2-yl]-3-(2-methoxy-phenyl)-acrylamide] | ≥ 100 | ≤ 2
N#Cc1c(NC(=O)/C=C/c2ccccc2Cl)sc2c1CCN(C(=O)Cc1ccccn1)C2 [Example 212, (E)-3-(2-Chloro-phenyl)-N-[3-cyano-6-(2-pyridin-2-yl-ethanoyl)-4,5,6,7-tetrahydro-thieno[2,3-c]pyridin-2-yl]-acrylamide] | ≥ 100 | ≤ 2
N#Cc1c(NC(=O)/C=C/c2ccccc2Cl)sc2c1CCN(C(=O)Cc1ccncc1)C2 [Example 214, (E)-3-(2-Chloro-phenyl)-N-[3-cyano-6-(2-pyridin-4-yl-ethanoyl)-4,5,6,7-tetrahydro-thieno[2,3-c]pyridin-2-yl]-acrylamide] | ≥ 100 | ≤ 2
N#Cc1c(NC(=O)/C=C/c2ccccc2Cl)sc2c1CCN(C(=O)CCc1cccnc1)C2 [Example 215, (E)-3-(2-Chloro-phenyl)-N-[3-cyano-6-(3-pyridin-3-yl-propanoyl)-4,5,6,7-tetrahydro-thieno[2,3-c]pyridin-2-yl]-acrylamide] | ≥ 100 | ≤ 2
CCOc1ccccc1/C=C/C(=O)Nc1sc2c(c1C#N)CCN(C(=O)CCOC)C2 [Example 216, (E)-N-[3-Cyano-6-(3-methoxy-propanoyl)-4,5,6,7-tetrahydro-thieno[2,3-c]pyridin-2-yl]-3-(2-ethoxy-phenyl)-acrylamide] | ≥ 100 | ≤ 2

— US7723523B2, “Tetrahydropyridothiophenes” (4SC AG, priority 2004, dated 2010)
